Reference: patent US20250186467A1, “METHODS OF TREATING MEDICAL CONDITIONS USING STAMPIDINE OR A RELATED COMPOUND” (ROME Therapeutics, Inc., priority 2022, published 2025)

Tested on: phosphorylated TANK-binding kinase 1 (pTBK1)
Experiment: UVB-induced pTBK1 in HaCaT cells
Type: cell-based
Details: 96 hours of treatment before UVB, 24 hours post-UVB, ELISA
Method: HaCaT cells were plated in 6-well plates at a density of ˜100 k/well in HaCaT media (DMEM, optimized 1× (Addex Bio)+1% pen strep (Gibco)+5% heat inactivated fetal bovine serum (Gibco)). The cells were then cultured at 37° C. overnight. The next day, the cells were treated with the test compounds. Each test compound was diluted and added to media aliquots to provide desired concentrations. To add the test compound+media mixture, an equivalent amount of media from each well was aspirated and then replenished with the media dosed with the test compound. The cells were then cultured for an additional 96 hours with compound treatment prior to UVB exposure.
The media was then aspirated from the wells, with the remaining cells at least 80% confluent in each well. One mL of PBS was then added to each well, and the plate was then placed under a UVB lamp. A UVB sensor was positioned near the plate to register the plate's exposure. The cells were exposed to the UVB light until they reached 0.1 mJ/cm^2. Then the plate was covered and transferred to a sterile hood for processing. […]
A RIPA lysis buffer (#BP-115, Boston Bio-Products) was added to a Halt protease and […] inhibitor cocktail (#78440, ThermoFisher), and the mixture was cooled on ice. […] The protein concentration of the cell lysate was measured using Pierce™ Rapid Gold BCA Protein Assay Kit #AF3225 (ThermoFisher). […]

## COC(=O)[C@H](C)N[P@](=O)(OC[C@@H]1C=C[C@H](n2cc(C)c(=O)[nH]c2=O)O1)Oc1ccc(Br)cc1 [Stampidine, methyl ((S)-(4-bromophenoxy)(((2S,5R)-5-(5-methyl-2,4-dioxo-3,4-dihydropyrimidin-1(2H)-yl)-2,5-dihydrofuran-2-yl)methoxy)phosphoryl)-L-alaninate]
  reduction of UVB-induced pTBK1: showed a reduction of UVB-induced phosphorylated TANK-binding kinase 1 (pTBK1)
